# Test results from the NIST ThermoML archive (doi:10.1016/j.jct.2006.07.025).
# Values joined by “and” are separate entries in the source; they are usually repeats but may differ in a detail not shown here. Identical values can stand only once. ± gives the expanded uncertainty stated by the source.
# Assays:
# [1] = for surface tension liquid-gas: Pendant drop shape; for mass density: 101 kPa, Liquid, Vibrating tube method
# [2] = xn = mol fraction of the nth substance listed; settings: x1 = 1; for surface tension liquid-gas: Pendant drop shape; for mass density: 101 kPa, Liquid, Vibrating tube method
Compound,surface tension liquid-gas ([1]; 298.15 K),mass density ([1]; 298.15 K),surface tension liquid-gas ([1]; 303.15 K),mass density ([1]; 303.15 K),surface tension liquid-gas ([1]; 308.15 K),mass density ([1]; 308.15 K),surface tension liquid-gas ([1]; 313.15 K),mass density ([1]; 313.15 K),surface tension liquid-gas ([2]; 298.15 K),mass density ([2]; 298.15 K),surface tension liquid-gas ([2]; 303.15 K),mass density ([2]; 303.15 K),surface tension liquid-gas ([2]; 308.15 K),mass density ([2]; 308.15 K),surface tension liquid-gas ([2]; 313.15 K),mass density ([2]; 313.15 K)
"Cc1ccc(C)c(C)c1 [1,2,4-trimethylbenzene]",29.17 ± 0.33 mN/m,871.66 ± 0.19 kg/m3,28.67 ± 0.32 mN/m,867.61 ± 0.19 kg/m3,28.17 ± 0.32 mN/m,863.59 ± 0.19 kg/m3,27.67 ± 0.31 mN/m,859.54 ± 0.19 kg/m3,–,–,–,–,–,–,–,–
"Cc1cc(C)cc(C)c1 [1,3,5-trimethylbenzene]",28.09 ± 0.31 mN/m,861.04 ± 0.18 kg/m3,27.67 ± 0.31 mN/m,856.96 ± 0.18 kg/m3,27.24 ± 0.3 mN/m,852.84 ± 0.18 kg/m3,26.82 ± 0.3 mN/m,848.74 ± 0.18 kg/m3,–,–,–,–,–,–,–,–
CCCCOC(C)=O [butyl ethanoate],24.89 ± 0.27 mN/m,876.18 ± 0.14 kg/m3,24.35 ± 0.27 mN/m,871.31 ± 0.14 kg/m3,23.82 ± 0.27 mN/m,866.24 ± 0.14 kg/m3,23.28 ± 0.26 mN/m,861.57 ± 0.14 kg/m3,–,–,–,–,–,–,–,–
CCCCOC(C)=O [butyl ethanoate] + Cc1cc(C)cc(C)c1,–,–,–,–,–,–,–,–,24.89 ± 0.27 mN/m,876.18 ± 0.14 kg/m3,24.35 ± 0.27 mN/m,871.31 ± 0.14 kg/m3,23.82 ± 0.27 mN/m,866.24 ± 0.14 kg/m3,23.28 ± 0.26 mN/m,861.57 ± 0.14 kg/m3
CCCCOC(C)=O [butyl ethanoate] + Cc1ccc(C)c(C)c1,–,–,–,–,–,–,–,–,24.89 ± 0.27 mN/m,876.18 ± 0.14 kg/m3,24.35 ± 0.27 mN/m,871.31 ± 0.14 kg/m3,23.82 ± 0.27 mN/m,866.24 ± 0.14 kg/m3,23.28 ± 0.26 mN/m,861.57 ± 0.14 kg/m3
CCCOC(C)=O [propyl ethanoate],23.99 ± 0.27 mN/m,882.64 ± 0.15 kg/m3,23.36 ± 0.26 mN/m and 23.35 ± 0.26 mN/m,876.99 ± 0.15 kg/m3,22.73 ± 0.26 mN/m,871.33 ± 0.15 kg/m3,22.1 ± 0.3 mN/m,865.68 ± 0.15 kg/m3,–,–,–,–,–,–,–,–
CCCOC(C)=O [propyl ethanoate] + Cc1cc(C)cc(C)c1,–,–,–,–,–,–,–,–,23.99 ± 0.27 mN/m,882.64 ± 0.15 kg/m3,23.35 ± 0.26 mN/m,876.99 ± 0.15 kg/m3,22.73 ± 0.26 mN/m,871.33 ± 0.15 kg/m3,22.1 ± 0.25 mN/m,865.68 ± 0.15 kg/m3
CCCOC(C)=O [propyl ethanoate] + Cc1ccc(C)c(C)c1,–,–,–,–,–,–,–,–,23.99 ± 0.27 mN/m,882.64 ± 0.15 kg/m3,23.36 ± 0.26 mN/m,876.99 ± 0.15 kg/m3,22.73 ± 0.26 mN/m,871.33 ± 0.15 kg/m3,22.1 ± 0.3 mN/m,865.68 ± 0.15 kg/m3
